Test results taken from patent US9381175B2, “Method for treating Chikungunya virus infection” (priority 2014, dated 2016).

Columns and labels:
[1] = test system: cell fusion of Sf21 cells infected with CS-WT viruses (CHIKV); experiment: Cell fusion assay, Sf21 cells infected with recombinant baculovirus CS-WT; conditions: for inhibition of cell fusion induced by CS-WT infection, primary screening: Sf21 cells, screening of drug library, antiviral agents and synthetic peptides, data not shown; for inhibition of cell fusion in CS-WT infected Sf21 cells: 5 mg/mL, 2 hours, pH 5.8, FIG. 11; for inhibition of the membrane fusion of Chikungunya viruses (summary of screening result): bicistronic baculovirus expression system in Sf21 cells
CHIKV [2] = experiment: Immunofluorescence assay of CHIKV infection in BHK-21 cells; type: cell-based, Chikungunya virus
BHK-21 cells = experiment: Cytotoxicity assay (crystal violet); type: cell-based; conditions: 1,000 μg/ml, BHK-21, 2 days, crystal violet OD 540, FIG. 18 left panel
Experimental: 10^5 BHK-21 cells per well of 96-well plate were cultured with 2% FCS DMEM. For cykotoxicity assay, cells were cultured in the presence or absence of drug at various concentrations in duplication for 2 days. For cell protection assay, cells were infected with CHIKV at moi of 0.05 in the presence or absence of drugs at various concentrations in duplication for 2 days. Cells were then stained with 0.1% crystal violet solution to observe clearance of the cell monolayer caused by the cytotoxic or cytopathic effect. Crystal violet was quantified by optical density (OD) 540.

CHIKV [3] = experiment: Cell protection assay against CHIKV infection (crystal violet); type: cell-based, Chikungunya virus; conditions: BHK-21, moi 0.05, 2 days, FIG. 18
CHIKV [4] = experiment: Western blot of CHIKV structural protein production in BHK-21 cells; conditions: FIG. 14
[5] = test system: cell fusion of Sf21 cells infected with VS-TC83 (VEEV-TC83) viruses; type: cell-based, Venezuelan equine encephalitis virus; conditions: for inhibition of fusion (fusion index) of Sf21 cells infected with VS-TC83 viruses: pH 5.8
VEEV-TC83 = type: cell-based, Venezuelan equine encephalitis virus

In the case of `O=C1[C@H](CC[C@H](O)c2ccc(F)cc2)[C@@H](c2ccc(O)cc2)N1c1ccc(F)cc1` [ezetimibe], the “inhibition of cell fusion induced by CS-WT infection, primary screening” value (shortened to “inhibition … primary screening”) [1] is reported as “failed to inhibit the cell fusion”.

In the case of `NC(=O)c1ncn([C@@H]2O[C@H](CO)[C@@H](O)[C@H]2O)n1` [ribavirin], the “inhibition of CHIKV infection in vitro (E2 immunofluorescence), comparison with suramin” value (CHIKV [2]; 12.5 μg/ml, BHK-21, M.O.I. 1, 20 hours, FIG. 15) is reported as “inhibition efficacy of suramin is higher than that of ribavirin”.

With `Cc1ccc(C(=O)Nc2ccc(S(=O)(=O)O)c3cc(S(=O)(=O)O)cc(S(=O)(=O)O)c23)cc1NC(=O)c1cccc(NC(=O)Nc2cccc(C(=O)Nc3cc(C(=O)Nc4ccc(S(=O)(=O)O)c5cc(S(=O)(=O)O)cc(S(=O)(=O)O)c45)ccc3C)c2)c1` [suramin] the “inhibition of CHIKV infection in vitro (E2 immunofluorescence)” value (CHIKV [2]; 175 μM (2.5 mg/mL), BHK-21, M.O.I. 1, 20 hours, FIG. 15) was “inhibit CHIKV infection in vitro”, the “time-of-addition: stage in which the inhibition activity takes place” value (CHIKV [2]; 5 mg/mL (350 μM), immunofluorescence, FIG. 17 panels A-C) was 0-2 hours post infection and the “time-of-addition: inhibitory effect on addition at a later stage” value (CHIKV [2]; 5 mg/mL (350 μM), immunofluorescence, FIG. 17 panels D-F) was “almost no inhibitory effect”. The “in vitro inhibition efficacy against CHIKV, dose dependence” value (CHIKV [2]; BHK-21, 2,000 PFU CHIKV, 20 hours, FIG. 16) was “increases as the concentration of suramin increases”, the “in vitro inhibitory effect against CHIKV” value (CHIKV [2]; dose of less than 44 μM, FIG. 16 panel D) was “marginal inhibitory effect” and the cytotoxicity (BHK-21 cells) was “minimal cytotoxicity”. The “concentrations at which the cells are significantly protected from CHIKV infection” value (CHIKV [3]) was 15.6-1,000 μg/ml, the “protection from the cytopathic effect of CHIKV infection” value (CHIKV [3]) was “protects BHK-21 cells from the cytopathic effect” and the “inhibitory effect on the production of the structural proteins of CHIKV” value (CHIKV [4]; 44 μM, BHK-21 cells) was “only marginal inhibitory effect”. For the same compound, the “inhibitory effect on the production of the structural proteins of CHIKV, dose dependence” value (CHIKV [4]; BHK-21 cells, 10,000 PFU CHIKV, 20 hours) was “dose-dependency of the inhibitory effect”, the “inhibitory effect on cell fusion (fusion index)” value ([1]; 55 μM, FIG. 13) was “minimal” and the “inhibition of cell fusion in CS-WT infected Sf21 cells” value [1] was “remarkably inhibited the cell fusion”. The “inhibitory efficacy on cell fusion (fusion index), dose dependence” value ([1]; 3,500, 875, 219 or 55 μM, FIG. 12/13) was “inhibitory efficacy of suramin increases as the concentration of suramin increases”, the “inhibition … primary screening” value [1] was “substantially inhibited the cell fusion” and the “inhibition of the membrane fusion of Chikungunya viruses (summary of screening result)” value [1] was “block the membrane fusion”.

In the case of carrageenan, the “inhibition … primary screening” value [1] is reported as “failed to inhibit the cell fusion”.

With chondroitin sulfate the “inhibition of cell fusion in CS-WT infected Sf21 cells” value [1] was “did not substantially inhibit the cell fusion”.

For dextran sulfate, the “inhibition of cell fusion induced by VS-TC83 virus, dose dependence” value [5] was “inhibit the cell fusion induced by VS-TC83 virus in a dose-dependent manner”, the “inhibition of the membrane fusion of Venezuelan equine encephalitis virus (summary of screening result)” value [5] was “can inhibit the membrane fusion” and the “inhibition of fusion (fusion index) of Sf21 cells infected with VS-TC83 viruses” value [5] was “substantially inhibit the fusion”. The “inhibition of VEEV-TC83 infection” value (VEEV-TC83) was “elicited dose-dependent inhibition” and the “inhibition of the membrane fusion of Chikungunya viruses (summary of screening result)” value [1] was “not effective to inhibit the membrane fusion”.

For heparin, the “inhibition of cell fusion induced by VS-TC83 virus, dose dependence” value [5] was “inhibit the cell fusion induced by VS-TC83 virus in a dose-dependent manner”, the “inhibition of the membrane fusion of Venezuelan equine encephalitis virus (summary of screening result)” value [5] was “can inhibit the membrane fusion” and the “inhibition of fusion (fusion index) of Sf21 cells infected with VS-TC83 viruses” value [5] was “substantially inhibit the fusion”. The “inhibition of VEEV-TC83 infection” value (VEEV-TC83) was “elicited dose-dependent inhibition” and the “inhibition of the membrane fusion of Chikungunya viruses (summary of screening result)” value [1] was “not effective to inhibit the membrane fusion”.
